Columns and labels:
Assay type in all cases: biochemical
miR-17 = assay: Ribonuclease activity assay, cleavage of miR-17; conditions: miRNA 1 µM, DC 20 µM, 37 °C
Procedure: (§1) The ribonuclease activity of DCs was studied under two different buffer conditions: buffer (1) contained 50 mM Tris-HCl, pH 7.0, 200 mM KCl, 1 mM EDTA, which imitates intracellular conditions (e.g., pH and potassium ions concentration) and was used in a number of studies previously; and buffer (2) contained 20 mM Tris-HCl, pH 7.8, 40 mM KCl, 8 mM MgCl2, 1 mM DTT, 0.02 mg/mL BSA, which is recommended for in vitro reactions with RNase H (Figure 3 and Figure 4).
(§2) Figure 3 Kinetics of cleavage of 5′-[^32P]-labeled miR-17, miR-18a, miR-155, miR-21 and miR-21_1 by corresponding DCs in the buffer (1), containing 50 mM Tris-HCl, pH 7.0, 200 mM KCl and 1 mM EDTA. (a–e) Radioautographs of 18% denaturing PAAG showing the cleavage products of miR-17, miR-18a, miR-155, miR-21 and miR-21_1, respectively. miRNA (1 µM) and corresponding DC (20 µM) were incubated at 37 °C for 72 h. Lanes Im and T1—imidazole ladder and partial RNA digestion with RNase T1, respectively; control–miRNA was incubated in the absence of the conjugate. The incubation time (in hours) is show at the top. SS gap–single-stranded region of miRNA formed upon hybridization with DC; (f) Kinetics of miRNAs cleavage by DCs depending on the incubation time. Data are presented as mean ± s.e.
(§3) Figure 4 Kinetics of cleavage of 5′-[^32P]-labeled miR-17, miR-18a, miR-155, miR-21, and miR-21_1 by corresponding DCs in the buffer (2), containing 20 mM Tris-HCl, pH 7.8, 40 mM KCl, 8 mM MgCl2, 1 mM DTT, 0.02 mg/mL BSA. (a–e) Radioautographs of 18% denaturing PAAG showing the cleavage products of miR-17, miR-18a, miR-155, miR-21 and miR-21_1, respectively. miRNA (1 µM) and corresponding DC (20 µM) were incubated at 37 °C for 72 h. Lanes Im and T1–imidazole ladder and partial RNA digestion with RNase T1, respectively; control–miRNA was incubated in the absence of the conjugate. The incubation time (in hours) is shown at the top. SS gap–single-stranded region of miRNA formed upon hybridization with DC; (f) Kinetics of miRNAs cleavage by DCs. Data are presented as mean ± s.e.
(§4) The reaction mixture (10 µL) contained 800 cpm (Cherenkov’s counting) of [^32P]-miRNA, 1 μM unlabeled miRNA, one of the conjugates at a concentration 10 or 20 μM and one of the buffers: 50 mM Tris-HCl, pH 7.0, 200 mM KCl, 1 mM EDTA–buffer (1) or 20 mM Tris-HCl, pH 7.8, 40 mM KCl, 8 mM MgCl2, 1 mM DTT, 0.02 mg/mL BSA–buffer (2). The mixture was incubated at 37 °C for 0–72 h and quenched by precipitation of RNA with 2% LiClO4 in acetone (90 µL). RNA was collected by centrifugation and dissolved in loading buffer (8 M urea, 0.025% bromophenol blue, 0.025% xylene cyanol). RNA cleavage products were analyzed in 18% PAAG/8M urea using TBE (100 mM Tris-borate, pH 8.3, 2 mM EDTA) as running buffer. To identify cleavage sites, an imidazole and T1-ladders produced by partial RNA cleavage with 2 M imidazole buffer (pH 7.0) and with RNase T1 [68], respectively, were run in parallel. To obtain quantitative data, gels were dried and analyzed using Molecular Imager FX. The total extent of RNA cleavage and the extent of RNA cleavage at each individual site were determined by using Quantity One software v.4.1 (Bio-Rad, Hercules, CA, USA).

miR-18a [1] = assay: Ribonuclease activity assay, cleavage of miR-18a; conditions: miRNA 1 µM, DC 20 µM, 37 °C
Procedure: as §1, §2, §3, §4

miR-18a [2] = assay: Ribonuclease activity assay at different concentrations of MgCl2; conditions: 50 mM Tris-HCl pH 7.0, 100 mM KCl, 1 mM DTT, 0.02 mg/mL BSA, 37 °C, 48 h; for Cleavage: miRNA 1 µM, DC 20 µM, mean ± s.e.
Procedure: In order to understand the effect of Mg^2+ ions on the efficiency and specificity of miRNA cleavage by DCs, miR-18a was incubated with the matching DC in the buffer containing 50 mM Tris-HCl, pH 7.0, 100 mM KCl, 1 mM DTT, 0.02 mg/mL BSA, but with different Mg^2+ concentration varied from 0 to 15 mM.
Reaction with different concentration of MgCl2 was performed in reaction mixtures (8 µL) containing 320 cpm (Cherenkov’s counting) of [^32P]-miR-18a, 1 μM unlabeled miRNA, 20 µM of miR-18a-DC in buffers contained 100 mM KCl, 50 mM Tris-HCl pH 7.0, 1mM DTT, 0.02 mg/mL BSA and MgCl2 at concentration 0, 2, 4, 8 or 15 mM at 37 °C for 48 h. RNA cleavage products were collected and analyzed as described above.

[3] = buffer (1) 50 mM Tris-HCl pH 7.0, 200 mM KCl, 1 mM EDTA, 2 h
[4] = buffer (1) 50 mM Tris-HCl pH 7.0, 200 mM KCl, 1 mM EDTA, 6 h
[5] = buffer (1) 50 mM Tris-HCl pH 7.0, 200 mM KCl, 1 mM EDTA, 24 h
[6] = buffer (1) 50 mM Tris-HCl pH 7.0, 200 mM KCl, 1 mM EDTA, 48 h
[7] = buffer (1) 50 mM Tris-HCl pH 7.0, 200 mM KCl, 1 mM EDTA, 72 h
[8] = buffer (2) 20 mM Tris-HCl pH 7.8, 40 mM KCl, 8 mM MgCl2, 1 mM DTT, 0.02 mg/mL BSA, 2 h
[9] = buffer (2) 20 mM Tris-HCl pH 7.8, 40 mM KCl, 8 mM MgCl2, 1 mM DTT, 0.02 mg/mL BSA, 6 h
[10] = buffer (2) 20 mM Tris-HCl pH 7.8, 40 mM KCl, 8 mM MgCl2, 1 mM DTT, 0.02 mg/mL BSA, 24 h
[11] = buffer (2) 20 mM Tris-HCl pH 7.8, 40 mM KCl, 8 mM MgCl2, 1 mM DTT, 0.02 mg/mL BSA, 48 h
[12] = buffer (2) 20 mM Tris-HCl pH 7.8, 40 mM KCl, 8 mM MgCl2, 1 mM DTT, 0.02 mg/mL BSA, 72 h

CTACCTGC–linker 1–[GRLRL]2–linker 2–AAGCACTTTG [miRNA-17-DC, Dual oligonucleotide-peptide conjugate targeted to miR-17: catalytic peptide [LRLRG]2 between two 2-aminoadenine-containing oligodeoxyribonucleotides]
Total Cleavage (miR-17; [3]): 0% | Total Cleavage (miR-17; [4]): 0% | Total Cleavage (miR-17; [5]): 1% | Total Cleavage (miR-17; [6]): 2% | Total Cleavage (miR-17; [7]): 5% | Total Cleavage (miR-17; [8]): 1,5% | Total Cleavage (miR-17; [9]): 4% | Total Cleavage (miR-17; [10]): 18% | Total Cleavage (miR-17; [11]): 32% | Total Cleavage (miR-17; [12]): 40% | rise of Kobs in buffer (2) compared to Kobs in buffer (1) (miR-17): 10 fold

TATCTGC–linker 1–[GRLRL]2–linker 2–ATGCACCTTA [miRNA-18a-DC, Dual oligonucleotide-peptide conjugate targeted to miR-18a: catalytic peptide [LRLRG]2 between two 2-aminoadenine-containing oligodeoxyribonucleotides]
Total Cleavage (miR-18a [1]; [3]): 0% | Total Cleavage (miR-18a [1]; [4]): 1% | Total Cleavage (miR-18a [1]; [5]): 3% | Total Cleavage (miR-18a [1]; [6]): 7% | Total Cleavage (miR-18a [1]; [7]): 8% | Total Cleavage (miR-18a [1]; [8]): 1,4% | Total Cleavage (miR-18a [1]; [9]): 5% | Total Cleavage (miR-18a [1]; [10]): 19% | Total Cleavage (miR-18a [1]; [11]): 23% | Total Cleavage (miR-18a [1]; [12]): 37% | rise of Kobs in buffer (2) compared to Kobs in buffer (1) (miR-18a [1]): 7 fold | Cleavage (miR-18a [2]; Mg2+ 0 mM): 26.4±4.0% | Cleavage (miR-18a [2]; Mg2+ 2 mM): 28.8±3.9% | Cleavage (miR-18a [2]; Mg2+ 4 mM): 24.3±2.7% | Cleavage (miR-18a [2]; Mg2+ 8 mM): 23.1±3.1% | Cleavage (miR-18a [2]; Mg2+ 15 mM): 27.2±4.3% | ribonuclease activity of DC (cleavage), unaffected by addition of Mg2+ (miR-18a [2]; Mg2+ varied from 0 to 15 mM): approximately 26%

Reference: paper PMC7287882, “Dual miRNases for Triple Incision of miRNA Target: Design Concept and Catalytic Performance” (Molecules, 2020)
